Where a name gives a salt, the structure may show the parent alone. Read-outs that look alike come from different tables or passages of the source.
Test: Phase 1 single ascending dose 2-hour IV infusion PK in healthy subjects (Cohorts 1-3)
Format: in vivo, human
Conditions: for Vd / AUC(0-t) / AUC(0-inf) / Tmax / half-life / Cmax: human, plasma; for Vd: iv; for AUC(0-t): read-out: AUC0-t (geometric mean)
Method: Healthy volunteers received migalastat HCl (DGJ HCl) via the intravenous (IV) route of administration to evaluate safety, tolerability, and pharmacokinetics. Another study was performed to determine the absolute bioavailability of migalastat after an oral capsule dose as compared to an IV administered dose of migalastat HCl in healthy volunteers. The absolute bioavailability arm was added to determine the exposure ratio of a 150 mg oral dose relative to a 150 mg dose administered as an IV infusion.
Type of Study: This Phase 1 study was a single-center study consisting of 2 designs. Cohorts 1, 2, and 3 were performed according to a randomized, double-blind, placebo-controlled, single ascending dose (SAD) IV study design to evaluate the safety, tolerability, and PK of IV administered migalastat HCl or IV administered placebo in healthy subjects. Cohort 4 was an open-label, randomized two-way crossover arm designed to assess the absolute bioavailability of orally administered migalastat HCl relative to IV administered migalastat HCl in healthy subjects.
Cohorts 1, 2, 3: Subjects in Cohorts 1, 2, and 3 received IV administered single ascending doses of migalastat HCl. Seven subjects were enrolled into each cohort (5 subjects randomized to migalastat HCl and 2 subjects randomized to placebo). Dosing of Cohorts 1, 2, and 3 was staggered to allow for safety and tolerability review before proceeding with the next group. Therefore, Cohorts 1, 2, and 3 were each divided into 2 sub-groups: Group A (2 subjects randomized to migalastat HCl and 1 subject randomized to placebo) and Group B (3 subjects randomized to migalastat HCl and 1 subject randomized to placebo). Subjects in Group B were dosed the day following completion of Group A dosing. Except for Cohort 3B, which was dosed 31 days after Cohort 3A because an interim PK review was performed on emerged data from Cohort 3A. Additionally, initiation of infusion was staggered by 60 minutes for Group A subjects, and by 30 minutes for Group B subjects (see FIG. 12).
Subjects enrolled in Cohorts 1, 2, and 3 were randomized to receive one of the following doses of migalastat HCl (n=5) or placebo (n=2): […]

[1] = 1.0 mg/kg vs 0.3 mg/kg, theoretical 3.33
[2] = 10 mg/kg vs 0.3 mg/kg, theoretical 33.3

OC[C@H]1NC[C@H](O)[C@@H](O)[C@H]1O [migalastat HCl, (2R,3S,4R,5S)-2-(hydroxymethyl) piperdine-3,4,5-triol]
CLT (arithmetic mean) (0.3 mg/kg IV): 6.59 L/h | CLT (arithmetic mean) (1.0 mg/kg IV): 7.68 L/h | Ratio Test/Reference, AUC0-t [1]: 3.01 | Ratio Test/Reference, AUC0-∞ [1]: 2.99 | Ratio Test/Reference, Cmax [1]: 2.89 | CLT (arithmetic mean) (10 mg/kg IV): 7.40 L/h | Ratio Test/Reference, AUC0-t [2]: 35.5 | Ratio Test/Reference, AUC0-∞ [2]: 35.2 | Ratio Test/Reference, Cmax [2]: 33.9 | dose proportionality of plasma exposure parameters (0.3 to 10 mg/kg single ascending IV dose range): appeared to be dose proportional | Vd (0.3 mg/kg, 0.3 mg/kg IV, read-out: Vss (arithmetic mean)): 17.9 L | Vd (0.3 mg/kg, 0.3 mg/kg IV, read-out: Vz (arithmetic mean)): 19.9 L | Vd (1 mg/kg, 1.0 mg/kg IV, read-out: Vss (arithmetic mean)): 24.2 L | Vd (1 mg/kg, 1.0 mg/kg IV, read-out: Vz (arithmetic mean)): 35 L | Vd (10 mg/kg, 10 mg/kg IV, read-out: Vss (arithmetic mean)): 27.2 L | Vd (10 mg/kg, 10 mg/kg IV, read-out: Vz (arithmetic mean)): 107 L | Vd (0.3 to 10 mg/kg IV, read-out: Vss, range over doses): 17.9 to 27.2 L | Vd (0.3 to 10 mg/kg IV, read-out: arithmetic mean Vz, range over doses): 19.9 to 107 L | AUC(0-t) (0.3 mg/kg IV): 2280 ng·h/mL | AUC(0-inf) (0.3 mg/kg IV, read-out: AUC0-∞ (geometric mean)): 2320 ng·h/mL | Tmax (0.3 mg/kg IV, read-out: tmax (median)): 1.93 h | half-life (0.3 mg/kg IV, read-out: t½ (arithmetic mean) (converted)): 2.09 h | AUC(0-t) (1.0 mg/kg IV): 6860 ng·h/mL | AUC(0-inf) (1.0 mg/kg IV, read-out: AUC0-∞ (geometric mean)): 6920 ng·h/mL | Tmax (1.0 mg/kg IV, read-out: tmax (median)): 1.93 h | half-life (1.0 mg/kg IV, read-out: t½ (arithmetic mean) (converted)): 3.21 h | AUC(0-t) (10 mg/kg IV): 81100 ng·h/mL | AUC(0-inf) (10 mg/kg IV, read-out: AUC0-∞ (geometric mean)): 81400 ng·h/mL | Tmax (10 mg/kg IV, read-out: tmax (median)): 1.93 h | half-life (10 mg/kg IV, read-out: t½ (arithmetic mean) (converted)): 10 h | half-life (0.3 to 10 mg/kg IV, read-out: arithmetic mean apparent terminal t½, range over doses): 2.09 to 10 h | AUC(0-inf) (0.3 to 10 mg/kg IV, read-out: geometric mean AUC0-∞, range over doses): 2320 to 81400 ng·h/mL | Cmax (0.3 to 10 mg/kg IV, read-out: geometric mean Cmax, range over doses): 609 to 20700 ng/mL | Tmax (dose levels of 0.3, 1.0, and 10 mg/kg IV, post start of infusion, read-out: median tmax): 1.93 h | Cmax (0.3 mg/kg IV, 2-hour infusion, read-out: Cmax (geometric mean)): 609 ng/mL | Cmax (1.0 mg/kg IV, 2-hour infusion, read-out: Cmax (geometric mean)): 1760 ng/mL | Cmax (10 mg/kg IV, 2-hour infusion, read-out: Cmax (geometric mean)): 20700 ng/mL
